Measurements taken from ChEMBL document CHEMBL4665730, “Discovery of nonpeptide 3,4-dihydroquinazoline-4-carboxamides as potent and selective sst2 agonists” (Bioorg Med Chem Lett, 2020).
pEC50, pIC50: −log10 of the molar value.

Legend:
[1] = biological target: T1, Somatostatin receptor type 2 (Homo sapiens, UniProt P30874); assay: Agonist activity at human SST2 expressed in CHO-K1 cells assessed as reduction in NKH477-induced intracellular cAMP accumulation; type: functional, cell-based; conditions: for pEC50: read-out: EC50; for EC50: read-out: pEC50 (converted)
T1 sequence (P30874 whole entry): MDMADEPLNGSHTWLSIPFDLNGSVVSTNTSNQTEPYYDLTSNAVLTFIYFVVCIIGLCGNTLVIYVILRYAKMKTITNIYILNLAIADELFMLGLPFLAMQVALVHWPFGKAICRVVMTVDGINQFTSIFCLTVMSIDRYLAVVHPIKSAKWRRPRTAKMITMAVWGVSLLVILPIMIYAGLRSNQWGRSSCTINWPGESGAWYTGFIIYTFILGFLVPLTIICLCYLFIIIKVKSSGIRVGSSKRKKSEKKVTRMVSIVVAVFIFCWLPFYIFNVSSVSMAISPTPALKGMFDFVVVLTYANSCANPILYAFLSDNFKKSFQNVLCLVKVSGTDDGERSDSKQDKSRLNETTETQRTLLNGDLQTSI

[2] = biological target: Voltage-gated inwardly rectifying potassium channel KCNH2 (Homo sapiens, UniProt Q12809); assay: Inhibition of human ERG expressed in HEK293 cells; type: cell-based; conditions: for pIC50: read-out: IC50; for IC50: read-out: pIC50 (converted)
Chain of Voltage-gated inwardly rectifying potassium channel KCNH2 (Q12809 whole entry): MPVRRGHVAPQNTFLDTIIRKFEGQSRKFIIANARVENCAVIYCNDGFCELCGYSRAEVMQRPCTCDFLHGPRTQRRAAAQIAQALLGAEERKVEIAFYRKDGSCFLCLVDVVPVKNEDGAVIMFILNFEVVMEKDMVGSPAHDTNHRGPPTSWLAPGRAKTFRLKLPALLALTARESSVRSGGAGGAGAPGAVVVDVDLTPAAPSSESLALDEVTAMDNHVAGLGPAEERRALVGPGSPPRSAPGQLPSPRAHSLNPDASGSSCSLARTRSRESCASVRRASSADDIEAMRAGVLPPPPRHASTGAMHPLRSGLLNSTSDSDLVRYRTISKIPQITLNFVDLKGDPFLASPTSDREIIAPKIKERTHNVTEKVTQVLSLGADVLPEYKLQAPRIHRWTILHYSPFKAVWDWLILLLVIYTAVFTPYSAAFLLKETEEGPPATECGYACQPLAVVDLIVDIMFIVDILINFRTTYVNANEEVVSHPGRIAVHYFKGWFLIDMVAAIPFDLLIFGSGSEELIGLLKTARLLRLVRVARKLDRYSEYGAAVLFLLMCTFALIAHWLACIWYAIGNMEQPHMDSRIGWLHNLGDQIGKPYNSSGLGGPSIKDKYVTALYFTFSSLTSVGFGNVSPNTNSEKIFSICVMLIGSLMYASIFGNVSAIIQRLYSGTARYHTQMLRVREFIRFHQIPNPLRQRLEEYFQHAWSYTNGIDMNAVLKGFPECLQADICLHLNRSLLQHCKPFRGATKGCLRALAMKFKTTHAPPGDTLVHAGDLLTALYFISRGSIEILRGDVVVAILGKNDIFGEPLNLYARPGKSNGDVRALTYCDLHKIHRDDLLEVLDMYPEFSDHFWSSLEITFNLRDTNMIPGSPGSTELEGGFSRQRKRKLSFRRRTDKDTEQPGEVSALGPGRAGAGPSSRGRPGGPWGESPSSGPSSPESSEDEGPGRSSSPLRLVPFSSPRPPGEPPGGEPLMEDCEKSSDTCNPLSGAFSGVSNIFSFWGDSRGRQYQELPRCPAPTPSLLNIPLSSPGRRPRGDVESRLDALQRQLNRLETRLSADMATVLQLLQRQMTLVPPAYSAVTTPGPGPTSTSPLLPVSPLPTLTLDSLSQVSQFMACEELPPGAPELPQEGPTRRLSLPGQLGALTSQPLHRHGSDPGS

[3] = biological target: T1, Somatostatin receptor type 2; assay: Agonist activity at SST2 (unknown origin)
[4] = biological target: Somatostatin receptor type 1 (Homo sapiens, UniProt P30872); assay: Agonist activity at SST1 (unknown origin)
Chain of Somatostatin receptor type 1 (P30872 whole entry): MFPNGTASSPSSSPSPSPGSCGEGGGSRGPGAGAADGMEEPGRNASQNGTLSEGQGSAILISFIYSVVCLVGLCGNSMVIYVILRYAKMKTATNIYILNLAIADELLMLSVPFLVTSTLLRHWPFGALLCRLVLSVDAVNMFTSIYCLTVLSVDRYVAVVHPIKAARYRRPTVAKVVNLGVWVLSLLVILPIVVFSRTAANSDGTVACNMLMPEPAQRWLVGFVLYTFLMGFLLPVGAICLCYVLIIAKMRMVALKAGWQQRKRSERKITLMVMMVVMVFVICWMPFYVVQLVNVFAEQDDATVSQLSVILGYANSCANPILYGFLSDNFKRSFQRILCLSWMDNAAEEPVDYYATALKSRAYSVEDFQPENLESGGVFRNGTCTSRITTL

[5] = biological target: Somatostatin receptor type 4 (Homo sapiens, UniProt P31391); assay: Agonist activity at SST4 (unknown origin)
Chain of Somatostatin receptor type 4 (P31391 whole entry): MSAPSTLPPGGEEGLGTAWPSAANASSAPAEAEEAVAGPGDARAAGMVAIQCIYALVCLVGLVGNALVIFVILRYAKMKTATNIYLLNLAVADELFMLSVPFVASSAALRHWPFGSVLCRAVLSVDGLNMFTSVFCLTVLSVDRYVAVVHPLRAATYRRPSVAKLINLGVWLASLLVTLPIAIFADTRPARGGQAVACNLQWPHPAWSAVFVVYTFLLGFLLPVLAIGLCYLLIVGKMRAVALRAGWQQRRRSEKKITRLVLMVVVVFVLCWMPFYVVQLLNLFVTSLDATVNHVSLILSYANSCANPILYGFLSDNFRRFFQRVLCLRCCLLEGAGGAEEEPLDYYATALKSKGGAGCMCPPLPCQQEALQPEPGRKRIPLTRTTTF

[6] = biological target: Somatostatin receptor type 5 (Homo sapiens, UniProt P35346); assay: Agonist activity at SST5 (unknown origin)
Chain of Somatostatin receptor type 5 (P35346 whole entry): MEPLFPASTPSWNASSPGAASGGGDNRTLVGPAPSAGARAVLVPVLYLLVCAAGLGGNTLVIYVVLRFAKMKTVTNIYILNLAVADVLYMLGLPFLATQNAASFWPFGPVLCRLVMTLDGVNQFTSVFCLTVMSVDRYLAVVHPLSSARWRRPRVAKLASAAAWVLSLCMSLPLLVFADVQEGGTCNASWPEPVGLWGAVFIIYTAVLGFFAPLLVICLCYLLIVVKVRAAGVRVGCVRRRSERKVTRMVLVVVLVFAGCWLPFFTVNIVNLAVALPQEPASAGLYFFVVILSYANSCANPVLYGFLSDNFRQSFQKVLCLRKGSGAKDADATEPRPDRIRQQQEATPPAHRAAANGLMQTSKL

[7] = biological target: Somatostatin receptor type 3 (Homo sapiens, UniProt P32745); assay: Agonist activity at SST3 (unknown origin)
Chain of Somatostatin receptor type 3 (P32745 whole entry): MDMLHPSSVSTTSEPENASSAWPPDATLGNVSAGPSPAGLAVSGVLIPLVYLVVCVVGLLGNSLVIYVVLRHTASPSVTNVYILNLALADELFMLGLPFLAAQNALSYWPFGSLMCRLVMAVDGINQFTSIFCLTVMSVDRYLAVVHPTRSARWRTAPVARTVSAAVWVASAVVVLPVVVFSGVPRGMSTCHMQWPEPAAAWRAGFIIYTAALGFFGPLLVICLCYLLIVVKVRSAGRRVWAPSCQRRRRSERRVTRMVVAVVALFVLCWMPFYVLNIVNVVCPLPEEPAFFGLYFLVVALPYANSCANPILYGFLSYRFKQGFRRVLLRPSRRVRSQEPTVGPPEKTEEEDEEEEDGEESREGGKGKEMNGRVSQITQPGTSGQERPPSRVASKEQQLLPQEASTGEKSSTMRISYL

[8] = biological target: T2, Cytochrome P450 3A4 (Homo sapiens, UniProt P08684); assay: Inhibition of CYP3A4 (unknown origin); type: ADME
T2 sequence (P08684 whole entry): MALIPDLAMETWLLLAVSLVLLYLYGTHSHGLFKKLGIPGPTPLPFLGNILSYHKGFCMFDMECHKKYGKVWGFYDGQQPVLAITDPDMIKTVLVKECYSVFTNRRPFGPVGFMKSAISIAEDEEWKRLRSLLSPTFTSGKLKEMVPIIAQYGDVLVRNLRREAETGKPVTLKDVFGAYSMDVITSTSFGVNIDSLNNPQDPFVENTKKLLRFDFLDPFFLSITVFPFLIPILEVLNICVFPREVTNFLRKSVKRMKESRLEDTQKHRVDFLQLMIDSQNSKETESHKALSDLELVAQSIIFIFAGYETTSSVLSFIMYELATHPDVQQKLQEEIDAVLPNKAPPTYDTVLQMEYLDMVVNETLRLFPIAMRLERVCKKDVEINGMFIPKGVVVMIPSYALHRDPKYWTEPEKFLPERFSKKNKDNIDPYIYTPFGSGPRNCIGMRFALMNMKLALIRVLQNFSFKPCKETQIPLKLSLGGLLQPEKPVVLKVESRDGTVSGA

[9] = Oral bioavailability in Sprague-Dawley rat at 10 mg/kg; type: ADME, organism-based; conditions: in vivo
[10] = biological target: Somatostatin receptor type 2 (Rattus norvegicus, UniProt P30680); assay: Agonist activity at rat SST2
Chain of Somatostatin receptor type 2 (Rattus norvegicus, UniProt P30680) (P30680 whole entry): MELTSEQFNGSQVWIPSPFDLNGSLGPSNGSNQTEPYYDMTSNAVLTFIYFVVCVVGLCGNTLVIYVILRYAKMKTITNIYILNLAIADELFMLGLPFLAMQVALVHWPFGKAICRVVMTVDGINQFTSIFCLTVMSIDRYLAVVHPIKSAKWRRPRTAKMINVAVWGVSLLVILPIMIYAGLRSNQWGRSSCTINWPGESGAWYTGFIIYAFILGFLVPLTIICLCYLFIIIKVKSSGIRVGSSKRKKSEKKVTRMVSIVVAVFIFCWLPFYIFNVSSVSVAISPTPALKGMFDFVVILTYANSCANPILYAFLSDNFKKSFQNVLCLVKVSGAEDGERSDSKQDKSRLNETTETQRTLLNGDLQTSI

[11] = biological target: Cytochrome P450 2D6 (Homo sapiens, UniProt P10635); assay: Inhibition of CYP2D6 (unknown origin); type: ADME
Chain of Cytochrome P450 2D6 (P10635 whole entry): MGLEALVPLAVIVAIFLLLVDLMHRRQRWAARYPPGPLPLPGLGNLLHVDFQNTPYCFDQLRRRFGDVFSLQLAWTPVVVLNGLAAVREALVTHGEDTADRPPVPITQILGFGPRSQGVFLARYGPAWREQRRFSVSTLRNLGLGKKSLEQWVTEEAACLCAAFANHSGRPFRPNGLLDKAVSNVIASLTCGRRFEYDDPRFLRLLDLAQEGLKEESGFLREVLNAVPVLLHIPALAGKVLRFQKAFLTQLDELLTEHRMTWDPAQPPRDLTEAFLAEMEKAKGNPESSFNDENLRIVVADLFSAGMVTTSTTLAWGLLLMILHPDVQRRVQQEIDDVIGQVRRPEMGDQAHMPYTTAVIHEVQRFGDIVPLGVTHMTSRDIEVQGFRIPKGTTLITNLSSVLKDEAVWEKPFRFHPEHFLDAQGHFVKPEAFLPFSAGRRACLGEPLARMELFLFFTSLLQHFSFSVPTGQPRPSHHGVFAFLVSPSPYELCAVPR

[12] = biological target: Cytochrome P450 2C9 (Homo sapiens, UniProt P11712); assay: Inhibition of CYP2C9 (unknown origin); type: ADME
[13] = biological target: Cytochrome P450 2C19 (Homo sapiens, UniProt P33261); assay: Inhibition of CYP2C19 (unknown origin); type: ADME
Chain of Cytochrome P450 2C19 (P33261 whole entry): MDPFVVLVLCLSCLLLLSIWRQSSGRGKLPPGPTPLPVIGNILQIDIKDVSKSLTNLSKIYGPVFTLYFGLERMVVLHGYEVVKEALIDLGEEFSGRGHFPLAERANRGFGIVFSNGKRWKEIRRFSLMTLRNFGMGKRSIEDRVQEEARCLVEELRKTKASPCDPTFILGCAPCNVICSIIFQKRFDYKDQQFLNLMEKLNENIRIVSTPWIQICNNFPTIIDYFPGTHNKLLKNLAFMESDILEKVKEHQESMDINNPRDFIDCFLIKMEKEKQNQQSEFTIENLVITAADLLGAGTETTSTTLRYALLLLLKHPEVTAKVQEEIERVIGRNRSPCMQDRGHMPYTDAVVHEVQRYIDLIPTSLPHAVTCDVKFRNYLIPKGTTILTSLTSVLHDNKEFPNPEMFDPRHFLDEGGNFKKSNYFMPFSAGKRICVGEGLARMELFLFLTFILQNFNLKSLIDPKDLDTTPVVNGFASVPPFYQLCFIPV

[14] = biological target: T2, Cytochrome P450 3A4; assay: Inhibition of CYP3A4 (unknown origin) at 10 uM; type: ADME

`Cc1cc(Cl)cc(N2C=Nc3cc(C)c(-c4cc(O)cc(C#N)c4)cc3C2C(=O)N(C)C[C@@H]2CCCN2)c1` (stereo not given in full) showed a pEC50 [1] of 9.44.

`Cc1cc(C)cc(N2C=Nc3cc(Cl)c(-c4cccc(O)c4)cc3C2C(=O)NC[C@H](C)N)c1` (stereo not given in full) gave a pEC50 ([1]; cho-k1) of under 6.00 and an EC50 [1] of over 1000 nM.

In the case of `CC[C@H](N)CN(C)C(=O)C1c2cc(-c3cccc(O)c3)c(Cl)cc2N=CN1c1cc(C)cc(C)c1` (stereo not given in full), the pEC50 [1] was 7.96.

For `Cc1cc(Cl)cc(N2C=Nc3cc(C)c(-c4cncc(O)c4)cc3C2C(=O)N(C)C[C@@H]2CCCN2)c1` (stereo not given in full), the pEC50 [1] was 8.09.

`Cc1cc(C)cc(N2C=Nc3cc(C)c(-c4cccc(O)c4)cc3C2C(=O)N(C)C[C@@H]2CCCN2)c1` (stereo not given in full) gave a pEC50 [1] of 8.89.

Molecule `Cc1cc(C)cc(N2C=Nc3ccc(-c4cccc(O)c4)cc3C2C(=O)N(C)C[C@H](C)N)c1` (stereo not given in full) has a pEC50 ([1]; cho-k1) of under 6.00 and an EC50 [1] of over 1000 nM.

Molecule `Cc1cc(Cl)cc(N2C=Nc3cc(C)c(-c4ccc5[nH]c(=O)[nH]c5c4)cc3C2C(=O)N(C)C[C@@H]2CCCN2)c1` (stereo not given in full) has a pEC50 [1] of 8.34.

`Cc1cc(Cl)cc(N2C=Nc3cc(C)c(-c4cc(O)ccc4F)cc3C2C(=O)N(C)C[C@@H]2CCCN2)c1` (stereo not given in full) gave a pIC50 [2] of over 6.00, an IC50 [2] of 501 nM and a pEC50 [3] of 9.70. The pEC50 [4] was under 6.00 and the pEC50 [1] was 9.70.

Work on `Cc1cc(Cl)cc(N2C=Nc3cc(C)c(-c4cc(F)cc(C(N)=O)c4)cc3C2C(=O)N(C)C[C@@H]2CCCN2)c1` (stereo not given in full) yielded an IC50 [2] of 2510 nM, a pEC50 [5] of under 6.00 and a pEC50 [6] of under 6.00. For the same molecule, the pEC50 [3] was 9.80, the pEC50 [7] was 8.10 and the pEC50 [4] was under 6.00. For the same molecule, the pEC50 [1] was 9.82 and the pIC50 [8] was 6.00.

With `Cc1cc(Cl)cc(N2C=Nc3cc(C)c(-c4cccc(C(F)(F)F)c4)cc3C2C(=O)N(C)C[C@@H]2CCCN2)c1` (stereo not given in full) the pEC50 [1] was 7.28.

Molecule `Cc1cc(Cl)cc(N2C=Nc3cc(C)c(-c4ccccc4)cc3C2C(=O)N(C)C[C@@H]2CCCN2)c1` (stereo not given in full) has a pEC50 [1] of 7.25.

`Cc1cc(Cl)cc(N2C=Nc3cc(C)c(-c4cc(F)cc(F)c4)cc3C2C(=O)N(C)C[C@@H]2CCCN2)c1` (stereo not given in full) showed a pEC50 [1] of 8.43.

`Cc1cc(Cl)cc(N2C=Nc3cc(C)c(-c4cccc(NS(C)(=O)=O)c4)cc3C2C(=O)N(C)C[C@@H]2CCCN2)c1` (stereo not given in full) gave a pEC50 [1] of 6.89.

In the case of `Cc1cc(Cl)cc(N2C=Nc3cc(C)c(-c4cccc(O)c4)cc3C2C(=O)N(C)C[C@@H]2CCCN2)c1` (stereo not given in full), the pEC50 [1] was 9.48.

`Cc1cc(Cl)cc(N2C=Nc3cc(C)c(-c4cccc(Cl)c4)cc3C2C(=O)N(C)C[C@@H]2CCCN2)c1` (stereo not given in full) showed a pEC50 [1] of 7.41.

Molecule `Cc1cc(Cl)cc(N2C=Nc3cc(C)c(-c4cnn(C)c4)cc3C2C(=O)N(C)C[C@@H]2CCCN2)c1` (stereo not given in full) has a pEC50 [1] of 6.77.

With `Cc1cc(Cl)cc(N2C=Nc3cc(C)c(-c4cccc(F)c4O)cc3C2C(=O)N(C)CC2CCCN2)c1` (stereo not given) the bioavailability [9] was under 5% and the pEC50 [10] was 9.27.

With `Cc1cc(Cl)cc(N2C=Nc3cc(C)c(-c4cncc(C#N)c4)cc3C2C(=O)N(C)C[C@@H]2CCCN2)c1` (stereo not given in full) the pEC50 [1] was 7.96.

`Cc1cc(Cl)cc(N2C=Nc3cc(C)c(-c4cccc(C#N)c4)cc3C2C(=O)N(C)C[C@@H]2CCCN2)c1` (stereo not given in full) showed a pEC50 [1] of 8.27.

With `Cc1cc(Cl)cc(N2C=Nc3cc(C)c(-c4cc(F)cc(C#N)c4)cc3C2C(=O)N(C)C[C@@H]2CCCN2)c1` (stereo not given in full) the pEC50 [5] was 6.20, the pEC50 [3] was 8.90 and the pEC50 [7] was 8.40. For the same molecule, the pEC50 [4] was under 6.00 and the pEC50 [1] was 8.89.

Work on `Cc1cc(Cl)cc(N2C=Nc3cc(C)c(-c4cc(O)cc(F)c4)cc3C2C(=O)N(C)C[C@@H]2CCCN2)c1` (stereo not given in full) yielded a pIC50 [2] of over 6.00, an IC50 [2] of 631 nM and a pEC50 [5] of 6.60. It also gave a pEC50 [6] of under 6.00, a pEC50 [3] of 9.90 and a pEC50 [7] of 8.10. For the same molecule, the pEC50 [4] was under 6.00 and the pEC50 [1] was 9.92.

Work on `CC[C@H](N)CN(C)C(=O)C1c2cc(-c3cccc(O)c3)c(C)cc2N=CN1c1cc(C)cc(C)c1` (stereo not given in full) yielded a pEC50 [1] of 8.38.

With `Cc1cc(Cl)cc(N2C=Nc3cc(C)c(-c4cccc(-c5nnn[nH]5)c4)cc3C2C(=O)N(C)C[C@@H]2CCCN2)c1` (stereo not given in full) the pEC50 ([1]; cho-k1) was under 6.00 and the EC50 [1] was over 1000 nM.

With `Cc1cc(Cl)cc(N2C=Nc3cc(C)c(-c4cccc(F)c4O)cc3C2C(=O)N(C)C[C@@H]2CCCN2)c1` (stereo not given in full) the “inhibition (INH)” value [11] was “Not Active”, the “inhibition (INH)” value [12] was “Not Active” and the “inhibition (INH)” value [13] was “Not Active”. The “inhibition (INH)” value [14] was “Active”, the IC50 [2] was 5010 nM and the pEC50 [6] was under 6.00. It also gave a pEC50 [7] of 6.80 and a pEC50 [4] of under 6.00.

Work on `Cc1cc(F)cc(N2C=Nc3cc(C)c(-c4cccc(O)c4)cc3C2C(=O)N(C)C[C@@H]2CCCN2)c1` (stereo not given in full) yielded a pEC50 [1] of 9.01.

For `Cc1cc(Cl)cc(N2C=Nc3cc(C)c(-c4cc(F)ccc4O)cc3C2C(=O)N(C)C[C@@H]2CCCN2)c1` (stereo not given in full), the pEC50 [1] was 8.68.

In the case of `COc1cc(F)cc(-c2cc3c(cc2C)N=CN(c2cc(C)cc(Cl)c2)C3C(=O)N(C)C[C@@H]2CCCN2)c1` (stereo not given in full), the pEC50 [1] was 8.21.
